From US20150307539A1, “USE OF SULPHATED G[…] PROMOTERS OF NEURITIC GROWTH, M[…] INHIBITING THE PROLIFERATION OF ASTROGLIA AND MICROGLIA” (CONSEJO SUPERIOR DE INVESTIGACIONES CIENTIFICAS (CSIC), priority 2012, published 2015) come the findings set out here.

One test relates to N13 microglia. Nature of the test: Inhibition of microglial cell proliferation, N13. Type of test: cell-based, mouse. To be noted: for IC50: N13, microglia, mouse, IC50 ± SE. The text has this:
(§1) To study the microglial and astroglial cell proliferation two cell lines of murine microglia were used (BV-2, N13), as well as primary astroblasts isolated from cerebral cortices of postnatal rats on day zero (P0). The cells were kept in DMEM plus 10% SBF, grown and treated for testing the inhibition of cell proliferation, as published earlier by the applicants (I. Garcia-Alvarez et al., J Med Chem 50, 364 (Jan. 25, 2007)). […] It was concluded that the inhibitory activity of IG20-NBD is not affected by the presence of the fluorescent group, as its IC50 is very similar to that obtained for the uncombined glycoside IG-20, which was used as a control in these tests.

Test [1] deals with Astrocytes (primary astroblasts from cerebral cortices of postnatal rats). Briefly: Inhibition of astroglial cell proliferation, primary astroblasts. Type of test: cell-based, rat. Conditions: for IC50: Astrocytes, astroglia, rat, IC50 ± SE.
Source text: as §1

Test [2] relates to oligodendrocytes and astroglia from cerebral cortices of postnatal rats P0-P1. Briefly: Oligodendrocyte growth, myelin (MBP) expression and astroglia (GFAP) inhibition in cortical glial culture. To be noted: 30 μM, two weeks culture. Type of test: cell-based, rat. The procedure: To study how the compound having formula I affects the growth of oligodendrocytes, the expression of myelin and the inhibition of astroglia, cerebral cortices of postnatal rats P0-P1 were dissected and enzymatically dissociated for cell culture. After two weeks incubation the culture flasks were stirred for 12 hours. The cells in suspension were harvested, the microglia were removed, and then cultured in DMEM plus SBF 10%. It was incubated for 6 hours to facilitate cell adhesion and the IG-20 (30 μM) was added to the treated group. The cells were cultured for two weeks and the medium was replaced every three days.
In both cases the differences were very significant. It was notable that the astroglial cells were large compared with the oligodendrocytes, which could scarcely be detected in the untreated controls (arrow in 2a, b). […] GFAP, glial fibrillary acidic protein; MBP, myelin basic protein; calibration bars at 75 μm (a, c) and 25 μm (b), as shown; (***) corresponds to P<0.001.

Test [3] has as its system neurons of spinal ganglia (SG) of rat embryos (E15). Nature of the test: Neuritic outgrowth of spinal ganglia neurons co-cultured on aldynoglia. Type of test: cell-based. The procedure: Spinal ganglia (SG) of rat embryos (E15) were dissected and incubated for 12 hours on axon growth-promoting cells (aldynoglia) to allow cellular adhesion of the neurons contained in the SG to the aldynoglia substrate. Next, different concentrations of IG-20, compound 3 produced as described in the synthesis examples, were added. […] The presence of total cells is shown by the fluorescent signal of the Hoechst-marked nuclei (FIG. 1a, 1b, 1c). The nuclei remote from the central body are aldynoglia cells or those that migrate from the SG. The neurofilament images were extracted (FIG. 1g, 1h, 1i) and measured, and the neuritic growth area was compared to the controls (FIG. 1j, 1k). […] A net increase in the neuritic growth area of 1250 μm^2 more than the control with aldynoglia cells (FIG. 1k) was produced. The average speed of neuritic outgrowth in the presence of aldynoglia, 625 μm/72 h corresponding to […], was duplicated in the presence of IG-20 (5 μM) up to 1250 μm/72 h, which corresponds to 17.36 μm/h. Calibration bars at 500 μm; (*) correspond to P<0.05 (P=0.019).

The next test has as its system BV-2 microglia. Nature of the test: Inhibition of microglial cell proliferation, BV-2. To be noted: mouse, IC50 ± SE. Type of test: cell-based.
Source text: as §1

In test [4] the target is T1, RhoGDIα protein (Rattus norvegicus, UniProt Q5XI73).
T1 construct: This was verified by RhoGDIα immunoprecipitation in the microglial cell line BV-2, and also in primary astrocyte cultures; endogenous in cells; host or cells: primary astrocyte cultures
T1 sequence (Q5XI73 1-204): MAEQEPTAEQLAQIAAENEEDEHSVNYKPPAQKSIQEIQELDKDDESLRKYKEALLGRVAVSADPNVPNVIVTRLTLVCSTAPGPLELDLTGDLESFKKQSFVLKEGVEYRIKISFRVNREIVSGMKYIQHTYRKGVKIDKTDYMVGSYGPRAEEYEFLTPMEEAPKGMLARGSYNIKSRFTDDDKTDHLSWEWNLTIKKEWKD
Nature of the test: Co-immunoprecipitation with anti-RhoGDIα antibody (Western blot and MS), primary astrocytes. Type of test: binding. To be noted: primary astrocytes treated with 30 μM, cytosol fraction. The procedure:
(§2) Primary astrocyte and microglia cells (BV-2) were treated with the glycoside IG-20 at 30 μM, lysed and subjected to cell fractionation by differential centrifugation. The soluble fraction was collected and mixed with lysis buffer (1:1). Anti-RhoGDIα antibody (15 μg) was added and it was incubated with rotation at 4° C. overnight. It was immunoprecipitated with Protein A-Sepharose (20 μl) having been previously washed with PBS and centrifuged for 3 minutes at 1100 rpm. The previous mixture was added to the Protein A-Sepharose (1:1). This mixture was incubated with rotation at 4° C. for an hour and a half, and afterwards centrifuged for 5 minutes at 2500 rpm at 4° C. After discarding the supernatant, the precipitate was washed three times with lysis buffer. The immunocomplex of the Protein A-Sepharose was eluted with five volumes of the elution buffer (0.1 M glycine, pH=2.9) and a neutralising volume of 1M tris-HCl, pH=9. The mixture was centrifuged for five minutes at 2500 rpm at 4° C. and the supernatant was collected. […]
(§3) This was verified by RhoGDIα immunoprecipitation in the microglial cell line BV-2, and also in primary astrocyte cultures. […] This was detected by MS as a peak in the mass to charge ratio of 550 (FIG. 4c, 4d), which corresponds to the synthetic glycoside. […]
On the technique in general: A western blot detects proteins with antibodies after separation by electrophoresis.

The target in test [5] is T2, RhoGDIα protein (Mus musculus, UniProt Q99PT1).
T2 construct: This was verified by RhoGDIα immunoprecipitation in the microglial cell line BV-2; endogenous in cells; host or cells: BV-2 microglial cell line
T2 sequence (Q99PT1 1-204): T1 sequence (Q5XI73 1-204)
Nature of the test: Co-immunoprecipitation with anti-RhoGDIα antibody (Western blot and MS), BV-2 microglia. Type of test: binding. Conditions: BV-2 microglia treated with 30 μM, cytosol fraction. The procedure:
as §2, §3

Consider `CCCCCCCC/C=C\CCCCCCCCO[C@H]1O[C@H](COS(=O)(=O)[O-])[C@@H](O)[C@H](OS(=O)(=O)[O-])[C@H]1NC(=O)C(F)(F)F.[K+].[K+]` [Disulphated IG-20, potash from oleyl N-trifluoroacetyl-3,6-O-di-(oxo-sulphonyl)-α-D-glucosaminide], for which the results for the IC50 (in the test with N13 microglia; in test [1]) were 3 ± 0.8 µM and 30 µM, respectively. Further, in the test with N13 microglia (microglia), the “microglial inhibition compared with IG-20” value is listed as “microglial inhibition was not affected”. For the same compound, the “activity in astrocytes compared with IG-20” value in test [1] (30 μM compared with 9.3 μM) is “reduced its activity by three”.
Regarding `CCCCCCCC/C=C\CCCCCCCCO[C@H]1O[C@H](COS(=O)(=O)O)[C@@H](O)[C@H](O)[C@H]1NC(=O)CCCCCNc1ccc([N+](=O)[O-])c2nonc12` [IG20-NBD, potash from oleyl 2-[6-(7-nitrobenzofurazan)-aminohexanamide]-6-O-(oxo-sulphonyl)-α-D-glucosaminide], the IC50 in the test with N13 microglia was found to be 7.8 µM; in test [1] (Astrocyte), 11.4 µM.
`CCCCCCCC/C=C\CCCCCCCCO[C@H]1O[C@H](COS(=O)(=O)[O-])[C@@H](O)[C@H](O)C1NC(C)=O.[K+]` (stereo partly drawn) [IG-20, potash from oleyl N-acetyl-6-O-(oxo-sulphonyl)-α-D-glucosaminide]: the results for the 50% inhibitory concentration (IC50) (with N13 microglia; in test [1] (Astrocyte); with BV-2 microglia) were 3.4 µM, 9.3 µM and 21 µM, respectively. Also, the “GFAP marking compared with untreated control” value in test [2] was “dramatic reduction in GFAP marking”. Moreover, the “MBP signal compared with untreated control” value in test [2] is given as “increase in the MBP signal”. For the same compound, the “increase of mature oligodendroglia, MBP+” value in test [2] is recorded as 10%. Further, in test [2], the “oligodendrocyte size relative to controls” value was 3-4 times larger than the controls. Also, in test [2], the “reduction of the proportion of GFAP+ cells (astroglia)” value amounted to 20%. Also, the “net increase in the neuritic growth area more than the control with aldynoglia cells” value in test [3] (5 μM, 3 days incubation) was found to be 1250 μm^2. The “neuritic outgrowth compared with control aldynoglia” value in test [3] (5 μM, 3 days incubation, SG/aldynoglia co-culture) is “profuse and significant increase in neuritic outgrowth”. Besides, the “average speed of neuritic outgrowth” value in test [3] (5 μM, control aldynoglia 8.3 μm/h) turned out to be 17.36 μm/h; in test [3] (5 μM, control aldynoglia 625 μm/72 h) it was 1250 μm/72 h. Further, the “neuritic outgrowth at five-fold increased concentration” value in test [3] (five-fold increase of 5 μM, 3 days incubation) is “reduced this neuritic outgrowth”. The “interaction with RhoGDIα (co-immunoprecipitation)” value on RhoGDIα protein [4] and at RhoGDIα protein [5] was “interacts directly with the RhoGDIα protein” throughout.

For orientation: IC50 means the concentration needed to halve the response being measured.
